# Values quoted from earlier work in patent publication US7807616B2, “Geranonitrile substitute” (Henkel AG & Co. KGaA, priority 2004, dated 2010).
# Like-named read-outs stand apart in the source and are kept apart here.
# Experiments:
# [1] = new findings (BASF, 2003); status 2004
# [2] = solution heated at 100° C. for two hours
amount of the anhydrous salt that dissolves in 100 g of water (at 60°),amount of the anhydrous salt that dissolves in 100 g of water (at 100°),amount of the anhydrous salt that dissolves in 100 g of water (room temperature),diphosphate produced by hydrolysis [2] [%],orthophosphate produced by hydrolysis [2],Compound,class under the EU classification criteria (CMR) [1]
,,,,,"CC(C)=CCCC(C)=CC#N [geranonitrile, 3,7-dimethyl-2,6-octadienenitrile]",category 3 mutagen (M:3)
about 20 g,around 32 g,About 17 g,~15,about 8%,O=P([O-])([O-])OP(=O)([O-])OP(=O)([O-])[O-].[Na+].[Na+].[Na+].[Na+].[Na+] [pentasodium triphosphate],
